Results reported in ChEMBL document CHEMBL5233229, “Recent advances in the development of ubiquitin-specific-processing protease 7 (USP7) inhibitors” (Eur J Med Chem, 2020).
One block for each molecule: values may come before it.

Key:
HCT-116 = assay: Anticancer activity against human HCT-116 cells assessed as cell growth inhibition incubated for 6 days by MTT assay; type: functional; settings: HCT-116, 144 h, time 6 day, read-out: LD50 (the source's name)
[1] = Inhibition of USP2a (unknown origin); design: species or system Homo sapiens
[2] = biological target: T1, Ubiquitin carboxyl-terminal hydrolase 7 (Homo sapiens, UniProt Q93009); assay: Inhibition of human USP7 using ubiquitin-Rho as substrate incubated for 1 hrs
[3] = biological target: T1, Ubiquitin carboxyl-terminal hydrolase 7; assay: Inhibition of human USP7 using Ub-AMC as substrate
[4] = biological target: T2, Ubiquitin carboxyl-terminal hydrolase 8 (Homo sapiens, UniProt P40818); assay: Inhibition of human USP8 using Ub-AMC as substrate
T2 sequence (P40818 whole entry): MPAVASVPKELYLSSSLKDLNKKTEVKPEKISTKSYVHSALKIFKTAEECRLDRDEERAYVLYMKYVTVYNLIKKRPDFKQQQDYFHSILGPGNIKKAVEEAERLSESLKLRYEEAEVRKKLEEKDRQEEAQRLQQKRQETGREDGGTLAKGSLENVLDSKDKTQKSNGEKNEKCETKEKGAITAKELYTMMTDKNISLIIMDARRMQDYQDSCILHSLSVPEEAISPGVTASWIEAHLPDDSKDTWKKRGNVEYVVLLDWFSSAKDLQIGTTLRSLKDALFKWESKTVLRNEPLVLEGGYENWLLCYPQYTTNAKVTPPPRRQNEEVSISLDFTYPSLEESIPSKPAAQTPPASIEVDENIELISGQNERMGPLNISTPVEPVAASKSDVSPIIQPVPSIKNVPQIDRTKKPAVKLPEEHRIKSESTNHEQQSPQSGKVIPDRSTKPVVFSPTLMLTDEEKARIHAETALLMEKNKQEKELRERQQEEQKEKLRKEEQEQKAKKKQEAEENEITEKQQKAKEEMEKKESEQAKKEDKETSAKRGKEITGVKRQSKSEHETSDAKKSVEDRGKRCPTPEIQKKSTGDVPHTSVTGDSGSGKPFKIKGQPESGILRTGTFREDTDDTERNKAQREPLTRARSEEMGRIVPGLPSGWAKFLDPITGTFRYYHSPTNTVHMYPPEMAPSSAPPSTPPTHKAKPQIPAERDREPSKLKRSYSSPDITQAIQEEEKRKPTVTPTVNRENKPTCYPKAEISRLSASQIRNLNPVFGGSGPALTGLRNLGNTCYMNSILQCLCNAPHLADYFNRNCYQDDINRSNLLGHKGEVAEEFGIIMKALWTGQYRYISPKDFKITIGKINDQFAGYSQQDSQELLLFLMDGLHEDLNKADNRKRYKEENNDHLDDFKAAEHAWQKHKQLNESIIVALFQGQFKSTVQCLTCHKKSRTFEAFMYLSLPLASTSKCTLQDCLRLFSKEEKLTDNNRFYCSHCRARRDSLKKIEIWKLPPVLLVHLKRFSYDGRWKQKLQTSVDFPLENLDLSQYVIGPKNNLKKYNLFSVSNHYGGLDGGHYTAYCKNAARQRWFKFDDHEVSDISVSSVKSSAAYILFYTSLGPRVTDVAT

[5] = biological target: T1, Ubiquitin carboxyl-terminal hydrolase 7; assay: Inhibition of human USP7 using ubiquitin-Rh110 as substrate incubated for 30 mins by Fluorometric plate reader analysis
[6] = biological target: T3, Ubiquitin carboxyl-terminal hydrolase 47 (Homo sapiens, UniProt Q96K76); assay: Inhibition of USP47 (unknown origin)
T3 sequence (Q96K76 whole entry): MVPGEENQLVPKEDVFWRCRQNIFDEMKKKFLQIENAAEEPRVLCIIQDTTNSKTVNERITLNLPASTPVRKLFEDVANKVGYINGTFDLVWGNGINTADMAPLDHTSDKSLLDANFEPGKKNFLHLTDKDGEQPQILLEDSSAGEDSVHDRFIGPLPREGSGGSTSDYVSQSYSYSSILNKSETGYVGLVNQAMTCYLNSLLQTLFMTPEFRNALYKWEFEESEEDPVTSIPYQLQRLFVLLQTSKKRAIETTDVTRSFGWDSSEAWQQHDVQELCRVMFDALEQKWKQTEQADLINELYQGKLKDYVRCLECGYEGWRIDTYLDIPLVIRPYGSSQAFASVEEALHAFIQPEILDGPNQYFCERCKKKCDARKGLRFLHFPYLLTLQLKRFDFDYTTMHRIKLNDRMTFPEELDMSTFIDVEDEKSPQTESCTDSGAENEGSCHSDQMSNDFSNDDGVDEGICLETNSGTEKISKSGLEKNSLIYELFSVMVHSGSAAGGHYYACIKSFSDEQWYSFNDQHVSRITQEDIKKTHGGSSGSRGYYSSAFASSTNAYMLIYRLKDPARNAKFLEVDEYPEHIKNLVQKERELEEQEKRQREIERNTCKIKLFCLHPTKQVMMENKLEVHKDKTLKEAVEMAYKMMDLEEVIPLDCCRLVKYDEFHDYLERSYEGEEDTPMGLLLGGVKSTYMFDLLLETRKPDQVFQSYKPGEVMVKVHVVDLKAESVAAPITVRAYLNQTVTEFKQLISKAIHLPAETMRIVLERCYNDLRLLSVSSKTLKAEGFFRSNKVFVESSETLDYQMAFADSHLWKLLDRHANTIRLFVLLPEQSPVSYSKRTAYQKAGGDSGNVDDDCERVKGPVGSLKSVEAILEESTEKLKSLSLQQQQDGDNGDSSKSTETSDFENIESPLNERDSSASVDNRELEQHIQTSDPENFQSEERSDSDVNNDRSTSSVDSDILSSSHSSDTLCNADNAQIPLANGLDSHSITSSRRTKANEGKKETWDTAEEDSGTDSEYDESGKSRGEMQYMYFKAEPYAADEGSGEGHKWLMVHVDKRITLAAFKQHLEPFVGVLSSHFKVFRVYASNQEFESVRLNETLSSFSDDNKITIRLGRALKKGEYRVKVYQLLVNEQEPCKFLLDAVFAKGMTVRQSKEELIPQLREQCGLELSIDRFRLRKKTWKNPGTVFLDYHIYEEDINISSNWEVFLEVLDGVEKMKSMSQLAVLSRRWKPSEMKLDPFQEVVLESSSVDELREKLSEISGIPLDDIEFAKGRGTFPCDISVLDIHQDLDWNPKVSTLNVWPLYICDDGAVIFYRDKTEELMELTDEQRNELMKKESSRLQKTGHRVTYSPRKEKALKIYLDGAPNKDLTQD

[7] = biological target: T1, Ubiquitin carboxyl-terminal hydrolase 7; assay: Inhibition of USP7 (unknown origin) by Ub-PLA2 assay
[8] = biological target: T1, Ubiquitin carboxyl-terminal hydrolase 7; assay: Inhibition of human USP7 using UbA10 as substrate incubated for 10 mins by TR-FRET assay

T1 sequence (Q93009 whole entry): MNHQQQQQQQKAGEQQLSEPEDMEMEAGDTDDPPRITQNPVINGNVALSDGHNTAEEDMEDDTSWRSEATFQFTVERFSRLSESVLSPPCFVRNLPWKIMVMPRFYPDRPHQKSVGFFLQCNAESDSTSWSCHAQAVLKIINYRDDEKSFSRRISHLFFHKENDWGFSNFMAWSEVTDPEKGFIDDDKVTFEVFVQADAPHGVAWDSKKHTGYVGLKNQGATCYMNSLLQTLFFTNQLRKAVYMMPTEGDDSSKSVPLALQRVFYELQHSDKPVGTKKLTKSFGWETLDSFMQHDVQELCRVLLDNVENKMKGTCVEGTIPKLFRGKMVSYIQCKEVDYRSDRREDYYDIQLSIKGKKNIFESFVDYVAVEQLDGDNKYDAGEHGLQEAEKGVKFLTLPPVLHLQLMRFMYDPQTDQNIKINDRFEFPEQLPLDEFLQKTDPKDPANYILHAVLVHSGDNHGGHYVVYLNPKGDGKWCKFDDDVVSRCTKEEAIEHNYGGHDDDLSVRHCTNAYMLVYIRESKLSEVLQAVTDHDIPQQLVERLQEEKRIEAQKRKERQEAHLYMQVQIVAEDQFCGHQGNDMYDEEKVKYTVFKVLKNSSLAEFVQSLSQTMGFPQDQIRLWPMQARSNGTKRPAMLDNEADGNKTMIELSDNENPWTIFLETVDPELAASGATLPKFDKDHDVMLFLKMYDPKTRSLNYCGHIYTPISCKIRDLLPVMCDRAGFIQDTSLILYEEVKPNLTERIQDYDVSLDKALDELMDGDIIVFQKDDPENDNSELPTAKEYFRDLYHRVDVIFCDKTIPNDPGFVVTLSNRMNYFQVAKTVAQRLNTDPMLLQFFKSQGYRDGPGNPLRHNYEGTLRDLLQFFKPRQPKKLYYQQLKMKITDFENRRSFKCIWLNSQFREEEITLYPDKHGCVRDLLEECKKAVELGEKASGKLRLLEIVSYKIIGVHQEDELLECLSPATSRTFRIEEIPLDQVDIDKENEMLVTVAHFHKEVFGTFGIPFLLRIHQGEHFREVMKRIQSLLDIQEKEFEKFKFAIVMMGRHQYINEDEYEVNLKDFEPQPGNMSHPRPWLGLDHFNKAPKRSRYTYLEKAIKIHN

SMILES: C[C@H](CC(=O)NO)[C@H]1CC[C@H]2[C@@H]3CC[C@@H]4C[C@H](O)CC[C@]4(C)[C@H]3CC[C@]12C
CC50 (HCT-116): 27.8 µM
IC50 [1]: 9.7 µM

SMILES: CC(=O)O[C@@H]1CC[C@@]2(C)[C@H](CC[C@@H]3[C@@H]2CC[C@]2(C)[C@@H]([C@H](C)CC(=O)O)CC[C@@H]32)C1
CC50 (HCT-116): 23.2 µM
IC50 [1]: 5.8 µM

SMILES: C[C@H](CC(=O)N1CCOCC1)[C@H]1CC[C@H]2[C@@H]3CC[C@@H]4C[C@H](O)CC[C@]4(C)[C@H]3CC[C@]12C
CC50 (HCT-116): 8.2 µM
IC50 [1]: > 100 µM

SMILES: C[C@@]12CCCc3coc(c31)C(=O)c1cc3c(cc12)[C@]1(O)C[C@H](O)N2CCS(=O)(=O)C(=C21)C3=O
IC50 [5]: > 5 µM

SMILES: N#Cc1nc2c(nc1N1CCC(F)(F)CC1)-c1ccccc1C2=O
IC50 [6]: > 100 µM

SMILES: C[C@@]12CCCc3coc(c31)C(=O)c1cc3c(cc12)C(=O)C=C(C1=CC(=O)c2cc4c(cc2C1=O)C(=O)c1occ2c1[C@@]4(C)CCC2)C3=O
IC50 [5]: 0.35 µM

SMILES: C[C@@]12CCCc3coc(c31)C(=O)c1cc3c(cc12)C(=O)C=C(c1cc(OS(=O)(=O)O)c2cc4c(cc2c1O)C(=O)c1occ2c1[C@@]4(C)CCC2)C3=O
IC50 [5]: 1.2 µM

SMILES: C[C@H](C1=CC(=O)c2cc3c(cc2C1=O)C(=O)c1occ2c1[C@@]3(C)CCC2)C1=CC(=O)c2cc3c(cc2C1=O)[C@]1(C)CCCc2coc(c21)C3=O
IC50 [5]: 0.49 µM

SMILES: N#Cc1nc2c(nc1C#N)-c1ccc(F)cc1C2=O
IC50 [6]: 4.3 µM

SMILES: COC(=O)C[C@@H](C)[C@H]1CC[C@H]2[C@@H]3CC[C@@H]4C[C@H](O)CC[C@]4(C)[C@H]3CC[C@]12C
CC50 (HCT-116): 20.5 µM
IC50 [1]: > 50 µM

SMILES: C[C@H](CC(N)=O)[C@H]1CC[C@H]2[C@@H]3CC[C@@H]4C[C@H](O)CC[C@]4(C)[C@H]3CC[C@]12C
CC50 (HCT-116): 24.5 µM
IC50 [1]: 27.9 µM

SMILES: N#Cc1nc2c(nc1C#N)-c1ccccc1C2=O
IC50 [6]: 3.5 µM

SMILES: C[C@@]12CCCc3coc(c31)C(=O)c1cc3c(cc12)CC1=C2N(CCS1(=O)=O)[C@H](O)C[C@@]23O
IC50 [5]: > 5 µM

SMILES: N#Cc1nc2c(nc1C#N)C1(OCCO1)c1ccccc1-2
IC50 [3]: > 100 µM
IC50 [6]: > 100 µM

SMILES: C[C@H](CC(=O)NCC#N)[C@H]1CC[C@H]2[C@@H]3CC[C@@H]4C[C@H](O)CC[C@]4(C)[C@H]3C[C@H](O)[C@]12C
CC50 (HCT-116): 28 µM
IC50 [1]: 7.4 µM

SMILES: C[C@H](CC(=O)O)[C@H]1CC[C@H]2[C@@H]3CC[C@@H]4CC(=O)CC[C@]4(C)[C@H]3CC[C@]12C
CC50 (HCT-116): > 50 µM
IC50 [1]: 32 µM

SMILES: C[C@@]12CCCc3coc(c31)C(=O)c1cc3c(cc12)[C@@]1(O)C[C@@H](O)N2CCS(=O)(=O)C(=C21)C3=O
IC50 [5]: > 5 µM

SMILES: C[C@H](CC(=O)O)[C@H]1CC[C@H]2[C@@H]3[C@H](O)C[C@@H]4C[C@H](O)CC[C@]4(C)[C@H]3C[C@H](O)[C@]12C
CC50 (HCT-116): > 50 µM

SMILES: C[C@H](CC(=O)NCCS(=O)(=O)O)[C@H]1CC[C@H]2[C@@H]3[C@H](O)C[C@@H]4C[C@H](O)CC[C@]4(C)[C@H]3C[C@H](O)[C@]12C
CC50 (HCT-116): > 50 µM

SMILES: C[C@@]12CCCc3coc(c31)C(=O)c1cc3c4c(cc(OS(=O)(=O)O)c3cc12)[C@@]12CCC[C@@]3(C)c5cc6c(OS(=O)(=O)O)ccc(O)c6cc5C(=O)[C@@](O)(OC1)[C@@]23O4
IC50 [5]: > 5 µM

SMILES: C[C@@]12CCCc3c(CCO)oc(c31)C(=O)c1cc3c(cc12)C(=O)C=CC3=O
IC50 [5]: 1.4 µM

SMILES: C[C@H](CC(=O)NCC(=O)O)[C@H]1CC[C@H]2[C@@H]3CC[C@@H]4C[C@H](O)CC[C@]4(C)[C@H]3CC[C@]12C
CC50 (HCT-116): > 100 µM
IC50 [1]: > 50 µM

SMILES: C[C@@]12CCCc3coc(c31)C(=O)c1cc3c(cc12)CC1=C2N(CCS1(=O)=O)[C@@H](O)C[C@]23O
IC50 [5]: > 5 µM

SMILES: CCO/C(O)=C(\C#N)c1nc2c(nc1C#N)C(=O)c1ccccc1-2
IC50 [3]: > 100 µM
IC50 [4]: > 100 µM

Other lines, results leading:

IC50 [2]: > 63.3 µM
SMILES: CCc1c(-c2ccc(O)cc2)cnc(N)c1-c1cccc(C)c1

IC50 [3]: > 100 µM
IC50 [4]: > 100 µM
SMILES: CCOc1nc2c(nc1C#N)C(=O)c1ccccc1-2

IC50 [2]: > 63.3 µM
SMILES: CCc1c(-c2ccc(O)cc2)cnc(N)c1-c1ccc(S(C)(=O)=O)cc1

IC50 [5]: 1.3 µM
SMILES: C[C@@]12CCC(=O)c3coc(c31)C(=O)c1cc3c(cc12)C(=O)C=CC3=O [HELENAQUINONE]

IC50 [7]: 12.9 µM
SMILES: CC(=O)c1cc([N+](=O)[O-])c(Sc2ccccc2Cl)s1

IC50 [7]: 7 µM
SMILES: CC(=O)c1cc([N+](=O)[O-])c(Sc2cccc(Cl)c2)s1

IC50 [7]: 6.5 µM
SMILES: CC(=O)c1cc([N+](=O)[O-])c(Sc2ccc(Cl)cc2Cl)s1

IC50 [7]: 20.1 µM
SMILES: CC(O)c1cc([N+](=O)[O-])c(Sc2ccc(Cl)cc2Cl)s1 (stereo not drawn)

IC50 [6]: > 100 µM
SMILES: N#Cc1nc2c(nc1N)-c1ccccc1C2=O

IC50 [6]: > 100 µM
SMILES: COc1nc2c(nc1C#N)C(=O)c1ccccc1-2

IC50 [7]: 11.8 µM
SMILES: CC(=O)c1cc([N+](=O)[O-])c(Sc2ccc(Cl)cc2)s1

IC50 [8]: 0.61 µM
SMILES: CCc1c(-c2ccc(O)cc2)cnc(N)c1-c1ccc2cn[nH]c2c1

IC50 [7]: > 50 µM
SMILES: CCc1cc([N+](=O)[O-])c(Sc2cccc(Cl)c2Cl)s1

IC50 [2]: 75.6 µM
SMILES: CCc1c(-c2ccc(C(=O)N(C)C)cc2)cnc(N)c1-c1ccc(O)cc1

IC50 [8]: 9.6 µM
SMILES: Nc1ncc(-c2ccccc2)cc1-c1ccc(O)cc1

IC50 [8]: > 50 µM
SMILES: Nc1ncc(-c2ccc(O)cc2)cc1-c1ccc(O)cc1

IC50 [6]: > 100 µM
SMILES: COCCOc1nc2c(nc1C#N)C(=O)c1ccccc1-2

IC50 [6]: > 100 µM
SMILES: N#CNc1nc2c(nc1C#N)C(=O)c1ccccc1-2

IC50 [7]: 13.9 µM
SMILES: CCCCc1cc([N+](=O)[O-])c(Sc2ccc(Cl)cc2Cl)s1

IC50 [7]: 6.4 µM
SMILES: CC(=O)c1cc([N+](=O)[O-])c(Sc2cc(Cl)cc(Cl)c2)s1

IC50 [6]: 66 µM
SMILES: N#Cc1nc2c(nc1C#N)-c1ccc(O)cc1C2=O

IC50 [3]: 2.55 µM
IC50 [4]: 0.133 µM
SMILES: N#Cc1nc2c(nc1C#N)-c1cc(Cl)ccc1C2=O
